Test [1] concerns the target T1, GUN4 (AtGUN4) (Arabidopsis thaliana, UniProt Q9LX31, F191A).
T1 construct: 6xHis-tagged, pQE80_AtGUN4(WT), expressed in and purified from E. coli
T1 sequence (Q9LX31 70-265 F191A): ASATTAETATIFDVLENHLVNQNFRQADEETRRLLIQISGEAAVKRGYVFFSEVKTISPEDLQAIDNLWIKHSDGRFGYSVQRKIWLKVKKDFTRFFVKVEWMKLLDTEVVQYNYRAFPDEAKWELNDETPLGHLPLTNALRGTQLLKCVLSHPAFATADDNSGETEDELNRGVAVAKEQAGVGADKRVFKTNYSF
As to the kind of experiment: tryptophan fluorescence quenching. The following applies: read-out: apparent Kd. It is filed as binding.

Test [2] addresses T2, GUN4 (AtGUN4) (Arabidopsis thaliana, UniProt Q9LX31).
T2 construct: 6xHis-tagged, pQE80_AtGUN4(WT), expressed in and purified from E. coli
T2 sequence (Q9LX31 70-265): T1 sequence (Q9LX31 70-265 F191A) with A122F
As to the kind of experiment: tryptophan fluorescence quenching. The following applies: read-out: apparent Kd. The class given is binding.

Each structure is given as a SMILES string. Changes are numbered by the printed parent chain.

Take `C=CC1=C(C)c2cc3[nH]c(cc4nc(cc5[nH]c(cc1n2)c(C)c5CCC(=O)O)C(CCC(=O)O)=C4C)c(C)c3C=C` [PIX]: the Kd in test [1] was 2.1 ± 0.28 µM; in test [2], 1.05 ± 0.12 µM.
